From patent US20050272636A1, “Treatment and diagnosis of a reproductive disorder by measuring or inhibiting interferon-gamma” (Adelaide Research & Innovation Pty Ltd., priority 2002, published 2005)

Columns and labels:
[1] = test system: IFNγ; assay: Inhibitors and antagonists counteracting the GM-CSF-inhibiting actions of IFNγ in uterine epithelial cells (Example 3); assay type: cell-based, mouse; settings: added in combination with IFNγ; dose-responsive, 5 ng/ml greater effect than 0.5 ng/ml
Method: Several inhibitors and antagonists of IFNγ were tested for their ability to counteract the GM-CSF-inhibiting actions of IFNγ in epithelial cells.
Uterine Epithelial Cell Cultures. Uterine epithelial cells prepared by pancreatin-trypsin digest as previously described (Robertson et al., (1992) Biol. Reprod. 46:1069-1079) were pooled from 4-6 estrous adult C57B1/6×CBA F1 female mice and plated in 1 ml culture wells (Nunc, Roskilde, Germany) at 1-2×10^5 cells per ml in 500 μl of RPMI containing 10% FCS and streptomycin (RPMI-FCS). Penicillin was omitted from culture media except where specified. After 4 h incubation at 37° C. in 5% CO2 to allow cell adherence, a further 500 μl of cytokines or antibodies in RPMI-FCS, or RPMI-FCS alone, were added. Cytokine treatments included recombinant mouse interferon-γ (rmIFNγ; R&D Systems), recombinant human transforming growth factor β1 (rhTGFβ1, R&D Systems), rhTGFβ2 (R&D Systems), rhTGFβ3 (OSI Pharmaceuticals). Antibody treatments included goat anti-mouse IFNγ receptor 1 (αIFNγR; R&D Systems AF1026) and hamster anti-mouse IFNγ (αIFNγ; R&D Systems MAB4851). Culture supernatants were collected and replaced with fresh complete RPMI-FCS alone at 16 hours, then collected again 24 hours later, at which time adherent cells were quantified as previously described (Robertson et al., (1992) Biol. Reprod. 46:1069-1079). The GM-CSF content of 24 h supernatants was determined by GM-CSF bioassay or immunoassay. All treatments were performed in duplicate or triplicate.
GM-CSF bioassay and immunoassay: Bioactive GM-CSF was assayed using the GM-CSF dependant cell line FD 5/12, essentially as previously described (Robertson et al., (1992) Biol. Reprod. 46:1069-1079). Cell proliferation was determined by the addition of 1 μCi of [^3H]-thymidine per well for the last 6 h of the assay. The minimal detectable amount of GM-CSF was […] The identity of the bioactivity in uterine epithelial cell cultures was confirmed using a goat polyclonal antibody to murine GM-CSF kindly provided by J. Schreurs (DNAX, Palo Alto, Calif.) as previously described (Robertson et al., (1992) Biol. Reprod. 46:1069-1079). GM-CSF immunoactivity was in some experiments measured by commercial mouse GM-CSF specific ELISA (R & D Systems) according to the manufacturer's instructions.

[2] = test system: human cervical epithelial cells; assay: Effect of IFN-γ and TGFβ on GM-CSF synthesis in human cervical epithelial cells (Example 4); assay type: cell-based; settings: 0.5, 5.0 or 50 ng/ml TGFβ1 + 5.0 ng/ml IFN-γ; dose-responsive; 12 h
Method: Human cervical epithelial cells were cultured using a modification of the technique described by Rheinwald et al., Cell 1975 3: 33143 (1975). Cervical biopsies were obtained from consenting women undergoing hysterectomy for non-malignant gynaecological indications. All the women were pre-menopausal, but no distinction was made regarding the stage of their menstrual cycle at the time of surgery. The cervical biopsies were placed in ice-cold Hank's balanced salt solution for transport to the laboratory, washed twice in antibiotic-containing medium, and incubated overnight at 4° C. in Dulbecco's modified Eagle's medium (DMEM) containing 5 U dispase (Boehringer Mannheim). Large sheets of keratinocytes were mechanically stripped from the biopsy using sterile forceps after a subsequent 1 h incubation at room temperature. Disaggregation into single cells was facilitated by incubation in DMEM/0.25% trypsin/0.05% collagenase for 30 minutes at 37° C., and repeated aspiration using a needle and syringe. […]
Supernatant was collected 12 hours later and assayed for GM-CSF activity using a commercial human GM-CSF specific ELISA (R & D Systems) according to the manufacturer's instructions. The GM-CSF content of post-treatment supernatants were normalised to the GM-CSF content of corresponding 12 h (baseline) supernatants and expressed as a percentage of control values.

[3] = test system: murine uterine epithelial cells; assay: Effect of rIFNγ and rTGFβ on GM-CSF production in cultured uterine epithelial cells (Example 2); assay type: cell-based, mouse; settings: rTGFβ 5 ng/ml; DMEM +penicillin; two experiments
Method: Uterine Epithelial Cell Cultures. Uterine epithelial cells prepared as previously described (Robertson et al., Biol Reprod 46:1069-1079 (1992)) were pooled from 4-6 estrous C57B1/6 or C57B1/6×Balb/c F1 mice and plated in 1 ml culture wells (Nunc, Roskilde, Germany) at 1-2×10^5 cells per ml in 500 μl of Dulbecco's modified Eagles medium containing 10% FCS, […] streptomycin sulphate and […] benzyl penicillin (DMEM +penicillin). After 4 h incubation at 37° C. in 5% CO2 to allow cell adherence, a further 500 μl of DMEM +penicillin, or DMEM +penicillin plus recombinant mouse IFNγ (rIFNγ) and/or recombinant human TGFβ1 (rTGFβ), were added. In some experiments, penicillin-free DMEM (DMEM −penicillin) was used throughout. Culture supernatants were collected and replaced with fresh medium at 16 hours, then collected again 24 hours later, at which time GM-CSF content was determined and adherent cells were quantified as previously described (Robertson et al., Biol Reprod 46:1069-1079 (1992)). All treatments were performed in duplicate or triplicate. rTGFβ and rIFNγ were obtained from R&D Systems, UK.
GM-CSF bioassay: GM-CSF was assayed using the GM-CSF dependant cell line FD 5/12, essentially as previously described (Robertson et al., Biol Reprod 46:1069-1079 (1992)). Cell proliferation was determined by pulsing with 1 μCi of [^3H]-thymidine per well for the last 6 h of the assay. The minimal detectable amount of GM-CSF was 20 pg/ml. The identity of the bioactivity in uterine epithelial cell cultures was confirmed using a goat polyclonal antibody to murine GM-CSF (DNAX, Palo Alto, Calif.) as previously described (Robertson et al., Biol Reprod 46:1069-1079 (1992)). GM-CSF production is expressed as ng GM-CSF/10^5 cells/24 h. Recombinant mouse GM-CSF was obtained from R&D Systems.

Substance: rhTGFβ1: recombinant human transforming growth factor β1 (R&D Systems)
- effect of TGFβ isoform on the inhibitory effect of IFNγ on GM-CSF synthesis [1]: counteracted the inhibitory effect
- effect of TGFβ on the inhibitory effect of IFN-γ on GM-CSF synthesis [2]: counteract the inhibitory effect
- increase in GM-CSF production [3]: approximately 6 fold
